Tests used:
[1] = tested on: MDRPA (CCARM 2095) biofilm formation; assay type: cell-based, multidrug-resistant Pseudomonas aeruginosa; details: overnight 37 °C, crystal violet staining
Description: Bacterial biofilms, comprising communities of bacterial cells encased in a matrix of polysaccharides and nucleic acids, present a significant challenge for conventional antibiotics due to the protective nature of this matrix. Biofilms can enhance bacterial resistance to antibiotics by up to 1000-fold compared to planktonic bacteria. To address this issue, there is an urgent need to discover and develop novel alternative therapeutic agents capable of effectively combating biofilm-forming bacteria. […] Our research specifically focused on evaluating the impact of BP100 and its analogs on biofilm formation and eradication using multidrug-resistant Pseudomonas aeruginosa (MDRPA), a common pathogen responsible for biofilm-mediated nosocomial infections. The adhered biomass was quantified using crystal violet staining, and the minimum biofilm inhibitory concentration (MBIC90) was determined as the lowest concentration required to inhibit 90% of biofilm growth relative to the positive control. […] Human cathelicidin LL-37 is well-documented for its potent antibiofilm properties.
The inhibitory activity of the peptides on biofilm formation was evaluated against multidrug-resistant Pseudomonas aeruginosa (MDRPA) (CCARM 2095) using a biofilm inhibition assay to determine the minimal biofilm inhibitory concentration (MBIC). Peptide solutions were serially diluted in sterile water and aliquoted (100 μL) into a 96-well Costar polypropylene plate (Corning Inc., Corning, NY, USA). An equal volume of MDRPA suspension in Mueller–Hinton Broth (MHB), adjusted to 1 × 10^6 CFU/mL, was added to each well, resulting in a final inoculum density of 5 × 10^5 CFU/mL. Following overnight incubation at 37 °C, bacterial growth was quantified by measuring the optical density (OD) at 595 nm. Planktonic cells were then discarded, and the attached biofilms were washed thrice with distilled water. Residual biofilms were stained with 0.1% crystal violet for five minutes, washed to remove non-adherent dye, and subsequently destained using 95% ethanol. The OD at 595 nm was measured again to assess the biofilm mass. Control wells contained untreated bacteria. The MBIC was defined as the lowest peptide concentration that inhibited any residual crystal violet staining or biofilm formation. All assays were conducted in triplicate to ensure reproducibility. This method allows for the quantitative assessment of the peptides’ ability to prevent biofilm formation, a critical virulence factor in many bacterial infections, particularly those caused by multidrug-resistant strains.

[2] = tested on: preformed MDRPA (CCARM 2095) biofilms; assay type: cell-based, multidrug-resistant Pseudomonas aeruginosa; details: 24 h treatment
Experimental: While preventing biofilm formation on surfaces is crucial, treating established biofilm infections presents a significant challenge due to the extracellular polymeric substance (EPS) matrix hindering antibiotic penetration and the high cell density within mature biofilms. To address this challenge, we evaluated the ability of BP100 and its analogs to eradicate established MDRPA biofilms over a 24 h period. The minimum biofilm eradication concentration (MBEC90) was determined using crystal violet staining as the lowest concentration that reduced biomass by more than 90%. Among these peptides, BP5, BP6, BP7, BP8, BP9, BP11, and BP13 eradicated preformed MDRPA biofilms by more than 90% at a concentration of 8 μM (Figure 3c,d and Table 3).
The minimal biofilm eradication concentration (MBEC) for peptides against the multidrug-resistant Pseudomonas aeruginosa (MDRPA) (CCARM 2095) strain was assessed using the Calgary Biofilm Device (CBD), supplied by Innovotech, Edmonton, AB, Canada. A bacterial suspension with a density of (1 × 10^6) CFU/mL in (150 µL) of Luria–Bertani (LB) media was dispensed into each well of a 96-well microtiter plate, which was equipped with a peg lid (Innovotech, product code: 19111). This plate was incubated at 37 °C for 24 h with agitation at 110 rpm, promoting biofilm formation on the pegs. Subsequently, the peg lid was washed with phosphate-buffered saline (PBS, 0.01 M) and relocated to a fresh plate containing varying peptide concentrations (200 µL per well). The biofilms were then subjected to these peptides under the same incubation conditions. After another PBS rinse, the peg lid was moved to a recovery plate filled with (200 µL) of LB media per well. To detach the biofilms from the pegs, the recovery plate underwent sonication in a water bath for 10 to 15 min. Finally, the recovery plate was incubated at 37 °C for 24 h with agitation at 110 rpm, allowing any surviving bacteria to proliferate and cause turbidity. The MBEC is defined as the lowest concentration of peptides that inhibited turbidity formation in the recovery plate in comparison to sterility controls. This experiment was conducted in triplicate, and the median value from each trial was recorded.

bacterial strains = assay: Geometric mean (GM) of MIC values over the bacterial strains; assay type: cell-based; details: over the 11 bacterial strains of Table 2
Experimental: The antibacterial efficacy of the synthesized peptides was evaluated by determining the minimal inhibitory concentrations (MICs) against six standard bacterial strains and five drug-resistant bacterial strains using the Clinical and Laboratory Standards Institute (CLSI) microdilution method. Melittin served as the positive control.
The minimal inhibitory concentrations (MICs) of the peptides against bacterial strains were determined using a modified broth-microdilution method in accordance with the National Committee for Clinical Laboratory Standards (NCCLS) guidelines. Overnight cultures were diluted in cation-adjusted Mueller–Hinton Broth (MHB) to achieve an inoculum density of 2 × 10^6 CFU/mL. A two-fold serial dilution of the peptide solution (100 μL) was introduced into microtiter plates, followed by the addition of 100 μL of bacterial suspension. The plates were then incubated at 37 °C for 24 h to determine the MICs. Wells containing only culture media served as negative controls, while those with added bacteria functioned as positive controls. The MIC, expressed in μM, was defined as the lowest peptide concentration that prevented visible bacterial growth. […]

MDRPA (CCARM 2095) = assay type: cell-based, multidrug-resistant Pseudomonas aeruginosa; details: checkerboard, 37 °C, 24 h
Description: Multidrug-resistant pathogens pose a significant challenge to both human and animal health. The steady decline in the discovery of new antibiotics has exacerbated the difficulty in developing effective therapies for infection control. Consequently, there is an urgent need for alternative strategies that can combat pathogens without inducing drug resistance. One such strategy involves the combination of different antimicrobial agents. The effects of antimicrobial peptides (AMPs) combined with conventional antibiotics often surpass those of individual drugs. […] The primary advantage of synergistic combinations lies in their ability to lower the concentration of each antimicrobial agent required for effective antibacterial activity. This approach offers several benefits, including reduced production costs, a decreased risk of adverse side effects, diminished toxicity to mammalian cells, and a lower likelihood of drug resistance development. In light of these potential advantages, we investigated the synergistic effects of BP100 and the five selected analogs in combination with ciprofloxacin against multidrug-resistant Pseudomonas aeruginosa (MDRPA) using a checkerboard synergy assay. Ciprofloxacin, an antibiotic belonging to the fluoroquinolone class, is commonly used to treat various bacterial infections, including urinary tract infections and pneumonia. It exerts a bactericidal effect by inhibiting bacterial DNA gyrase, thereby disrupting DNA replication and transcription […]. The fractional inhibitory concentration index (FICI) results for BP100 and its selected analogs, when paired with ciprofloxacin against MDRPA, are detailed in Table 5. […] Such combinations may offer a valuable approach to enhancing the efficacy of existing antibiotics and potentially mitigating the development of antimicrobial resistance.
The synergistic effects of peptide-antibiotic combinations against methicillin-resistant Staphylococcus aureus (MRSA; CCARM 3089) and multidrug-resistant Pseudomonas aeruginosa (MDRPA; CCARM 2095) were evaluated using the fractional inhibitory concentration index (FICI) method. Antibiotics and peptides were subjected to two-fold serial dilutions, mixed in equal ratios, and combined with a bacterial suspension adjusted to approximately 10^6 CFU/mL. The resulting mixtures were distributed into microplate wells and incubated at 37 °C with orbital shaking at 200 rpm for 24 h. Bacterial growth was monitored by measuring the optical density at 600 nm (OD600). The FICI was calculated using the broth microdilution checkerboard method, defined as the sum of the ratios of the minimum inhibitory concentrations (MICs) of each agent in combination to their individual MICs, according to the following equation: FICI = (MIC of antibiotic in combination/MIC of antibiotic alone) + (MIC of peptide in combination/MIC of peptide alone). The interpretation of FICI values was as follows: FICI ≤ 0.5 indicates synergy; 0.5 < FICI ≤ 1.0 indicates an additive effect; 1.0 < FICI ≤ 4.0 indicates indifference; and FICI > 4.0 indicates antagonism.

**Q.** `CC[C@H](C)[C@H](NC(=O)[C@H](CCCCN)NC(=O)[C@H](CCC(=O)O)NC(=O)[C@H](CCCCN)NC(=O)[C@H](CO)NC(=O)[C@H](CCCCN)NC(=O)[C@H](CCCNC(=N)N)NC(=O)[C@H](Cc1ccccc1)NC(=O)[C@H](Cc1ccccc1)NC(=O)[C@H](CC(=O)O)NC(=O)CNC(=O)[C@H](CC(C)C)NC(=O)[C@@H](N)CC(C)C)C(=O)NCC(=O)N[C@@H](CCCCN)C(=O)N[C@@H](CCC(=O)O)C(=O)N[C@@H](Cc1ccccc1)C(=O)N[C@@H](CCCCN)C(=O)N[C@@H](CCCNC(=N)N)C(=O)N[C@H](C(=O)N[C@H](C(=O)N[C@@H](CCC(N)=O)C(=O)N[C@@H](CCCNC(=N)N)C(=O)N[C@H](C(=O)N[C@@H](CCCCN)C(=O)N[C@@H](CC(=O)O)C(=O)N[C@@H](Cc1ccccc1)C(=O)N[C@@H](CC(C)C)C(=O)N[C@@H](CCCNC(=N)N)C(=O)N[C@@H](CC(N)=O)C(=O)N[C@@H](CC(C)C)C(=O)N[C@H](C(=O)N1CCC[C@H]1C(=O)N[C@@H](CCCNC(=N)N)C(=O)N[C@H](C(=O)N[C@@H](CCC(=O)O)C(=O)N[C@@H](CO)C(=O)O)[C@@H](C)O)C(C)C)[C@@H](C)CC)C(C)C)[C@@H](C)CC` [LL-37, reference compound] was tested. Which MBIC50 ([1]; 50% inhibition) did it give?
**A.** 32 to 64 µM

**Q.** What about the MBIC90 ([1]; 90% inhibition) of the same compound?
**A.** 64 µM

**Q.** What about the MBEC50 ([2]; 50% eradication) of the same compound?
**A.** 32 µM

**Q.** What about the MBEC90 ([2]; 90% eradication) of the same compound?
**A.** > 64 µM

**Q.** Which “GM (geometric mean of MIC values)” value (bacterial strains) does the source give for `CC[C@H](C)[C@H](NC(=O)CN)C(=O)NCC(=O)N[C@@H](C)C(=O)N[C@H](C(=O)N[C@@H](CC(C)C)C(=O)N[C@@H](CCCCN)C(=O)N[C@H](C(=O)N[C@@H](CC(C)C)C(=O)N[C@H](C(=O)N[C@H](C(=O)NCC(=O)N[C@@H](CC(C)C)C(=O)N1CCC[C@H]1C(=O)N[C@@H](C)C(=O)N[C@@H](CC(C)C)C(=O)N[C@H](C(=O)N[C@@H](CO)C(=O)N[C@@H](Cc1c[nH]c2ccccc12)C(=O)N[C@H](C(=O)N[C@@H](CCCCN)C(=O)N[C@@H](CCCNC(=N)N)C(=O)N[C@@H](CCCCN)C(=O)N[C@@H](CCCNC(=N)N)C(=O)N[C@@H](CCC(N)=O)C(=O)N[C@@H](CCC(N)=O)C(N)=O)[C@@H](C)CC)[C@@H](C)CC)[C@@H](C)O)[C@@H](C)O)C(C)C)C(C)C` [ME, melittin] here?
**A.** 24.0 µM

**Q.** With `O=C(O)c1cn(C2CC2)c2cc(N3CCNCC3)c(F)cc2c1=O` [ciprofloxacin, reference compound] as the compound, how does the “MICB: MIC of ciprofloxacin alone” value (MDRPA (CCARM 2095)) read?
**A.** 2048 µg/mL
